# Reference: patent publication US11554123B2, “Compositions and methods for reactivating latent HIV-1 infections” (Saint Joseph's University, priority 2017, dated 2023)
# Values joined by “and” are separate entries in the source; they are usually repeats but may differ in a detail not shown here. Identical values can stand only once. “Also recorded” adds a separate entry of the source. Like-named read-outs stand apart in the source and are kept apart here.
# Assays:
# Format in all cases: cell-based
# [1] = tested on: latent HIV-1 in JLat10.6 cell line model of T-cell latency; conditions: for percentage of GFP+ live cells: 10 μM benzodiazepine used independently, 48 h, FIG. 1A, DMSO background 2.8%; for maximal effect in dose dependent reactivation (in words): compared with Alprazolam; for activation compared with the other tested benzodiazepines (in words): in the presence or absence of SAHA
# [2] = tested on: acetylated histone 3 at lysine 9 (H3K9); assay: NUCLEO-M imaging of acetylated H3K9 in isolated nuclei; conditions: FIG. 3A
# Protocol: Transcriptionally competent nuclei were isolated from TZM-bl cells by chemical lysis and stored following manufacturer's recommendations (Nuclei Isolation Kit: Nuclei EZ Prep, Sigma-Aldrich, Nuc-101). Nuclei were stained for 1 hour on ice in 5% FBS/PBS solution containing primary antibodies. Nuclei were washed twice in 5% FBS/PBS and stained for 1 hour on ice with appropriate secondary antibodies conjugated with fluorescent dyes. Nuclei were finally washed twice in 5% FBS/PBS and resuspended in the storage buffer provided by the kit (Nuclei Isolation Kit: Nuclei EZ Prep, Sigma-Aldrich, Nuc-101).
# Isolated nuclei and TZM-bl cells seeded on a chambered coverglass (NUNC® LAB-TEK® Chambered Coverglass, Thermo Fisher) were imaged with a Zeiss AXIOVERT® microscope with a Zeiss alpha PLAN-FLUAR® 100×, 1.45 N.A., oil objective and a spinning disk confocal scan head (Yokogawa CSU-X1). A 488 nm laser source with 488-25 nm, 617-73 nm and 692-40 nm emission filters were used for the illumination of Alexa Fluor® 488 dye (Thermo Fisher) or SYTO® RNA SELECT® Green Fluorescent cell Stain (Thermo Fisher), and PerCP-Cy5.5 (BD Biosciences) respectively. A 561 nm laser source with 568-25 nm emission filters was used for illumination of ALEXA FLUOR® 555 dye (Thermo Fisher). Digital images were captured sequentially by a high-speed EM-CCD camera with 100 ms exposure time (Photometrics EVOLVE® 512). […]
# [3] = tested on: H3K9ac at the integrated HIV-1 long terminal repeat (LTR); assay: ChIP for H3K9ac at integrated HIV-1 LTR in TZMbl cells; conditions: 48 h; for H3K9ac at the HIV-1 LTR versus SAHA alone (in words): 50 μM Ro5-3335, 10 μM Alprazolam or 10 μM Clonazepam with 5 μM SAHA
# Protocol: (§1) TZMbl cells were cultured with benzodiazepines for 48 hours before chromatin immunoprecipitation analysis. Following treatment, cells were processed for chromatin immunoprecipitation using the Pierce Agarose ChIP Kit (Fisher Scientific) using commercially available antibodies against histone H3 lysine 9 acetylation, STATS, and CBP/P300. Degree of occupancy at the integrated HIV-1 LTR was determined by qPCR using HIV-1 LTR specific primers run on a BioRad CFX384 qPCR machine using Sybr Green methodology.
# In order to test the changes driven by these compounds, chromatin immunoprecipitation (ChIP) assays were performed to examine the presence of various proteins and modifications at the integrated HIV-1 long terminal repeat (LTR). TZMbl cells were treated for 48 hours with 50 μM Ro5-3335, 10 μM Alprazolam and 10 μM Clonazepam with or without 5 μM SAHA Acetylation of histone 3 at lysine 9 (H3K9ac) was first examined (FIG. 3B). […] None of the benzodiazepines were able to alter H3K9ac when used alone.
# [4] = tested on: CBP/P300; assay: ChIP for CBP/P300 at integrated HIV-1 LTR in TZMbl cells; conditions: for recruitment of CBP/P300 to the HIV-1 LTR: addition of 50 μM Ro5-3335 or 10 μM Alprazolam, 48 h, FIG. 3D
# Protocol: as §1
# Therefore, ChIP was performed for STATS to determine if benzodiazepine treatment might increase the recruitment of STATS above SAHA treatment (FIG. 3C). All three benzodiazepines were capable of driving recruitment of STATS to the promoter, and further recruitment was seen when used in combination with SAHA. STATS is capable of recruiting the histone acetyl transferase CBP/P300 that acetylates histone 3 at lysine 27, a residue that is not affected by SAHA. […] Addition of both Ro5-3335 and Alprazolam induced recruitment of CBP/P300 to the HIV-1 LTR (by 3 and 7 fold respectively).
# [5] = target: T1, HIV-1 Tat (Human immunodeficiency virus type 1 group M subtype B, UniProt P04608); conditions: TZMbl cells transfected with Tat plasmid, 24 h treatment, FIG. 3E
# T1 construct: expressed in transfected cells; host or cells: TZMbl cells
# T1 sequence (P04608 whole entry): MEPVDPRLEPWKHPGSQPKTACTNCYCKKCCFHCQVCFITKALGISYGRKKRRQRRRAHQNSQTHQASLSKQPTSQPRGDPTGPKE
# [6] = tested on: IL-17 promoter; assay: IL-17 promoter luciferase reporter assay in 293T cells
# [7] = tested on: RUNX1 responsive genes; assay: RUNX responsive gene expression (qPCR) in PBMCs from HIV-1 patients; conditions: PBMCs of three HIV-1 patients, 48 h
# Protocol: (§2) To evaluate the ability of Alprazolam to reactivate latent cells from patients we obtained PBMCs from two HIV-1 patients who had been suppressed on therapy for greater than 6 months. 10×10^6 PBMCs were divided between three conditions: DMSO control, 50 μM Ro5-3335 and 10 μm Alprazolam. PBMCs were cultured in RPMI with 10% FBS and the given drugs for twenty-four hours. RNA was extracted from the cells and used for RTqPCR to detect HIV-1 Gag mRNA. RNA was extracted using Trizol reagent (Invitrogen) following manufacturer's protocol. Following reverse transcription, the samples were diluted 1:50, and 2.5 microliters were used for quantitative PCR in a BioRad CFX384 qPCR machine. All mRNA analyses were normalized to GAPDH. Nucleic acid amplification was tracked by SYBR Green method.
# Next, expression of several RUNX responsive genes in PBMCs in response to Ro5-3335 and Alprazolam was examined. Samples from three HIV-1 patients were treated with Alprazolam or Ro5-3335 for 48 hours. RNA was harvested using Trizol and cDNA was synthesized using RT reaction. qPCR was performed using primers for seven known RUNX1 responsive genes: APOBEC3C, APOBEC3G, Tbet, RUNX1 d, IL-2, IL7R and STAH (FIG. 5).
# [8] = tested on: HIV-1 Gag mRNA; assay: HIV-1 Gag mRNA (RTqPCR) in ex vivo treated PBMCs from HIV-1 patients; conditions: 24 h; for increase in HIV-1 Gag RNA: 10 μm Alprazolam
# Protocol: as §2
# In order to evaluate the ability of Alprazolam to reactivate latent cells from patients, PBMCs were obtained from two HIV-1 patients who had been suppressed on therapy for greater than 6 months. 10×10^6 PBMCs were divided between three conditions: DMSO control, 50 μM Ro5-3335 and 10 μm Alprazolam. PBMCs were cultured in RPMI with 10% FBS and the given drugs for twenty-four hours. RNA was extracted from the cells and used for RTqPCR to detected HIV-1 Gag mRNA (FIG. 6). […] Treatment with Alprazolam produced detectable reactivation of HIV-1 transcripts.
# [9] = tested on: JLat10.6 cells; assay: JLat10.6 cell viability (live/dead staining); conditions: 48 h, DMSO control 97%
# Protocol: […] Forty-eight hours after treatment, cells were stained for live dead staining using Live/Dead Red stain (BD Biosciences). Viability was determined by fluorescent detection of the live dead stain using a CYTEK® DxP12 flow cytometer. Comparison to untreated cells was used to determine degree of cell viability.
# To examine safety of the treatment and effect on T-cell activation, Jlat10.6 cells were treated with different benzodiazepines with and without SAHA. Forty-eight hours after incubation, cells were harvested and stained with red live/dead staining according to the manufacturer protocol (LIVE/DEAD® Fixable Red Dead Cell Stain Kit, ThermoFisher Scientific) (FIG. 2A). Trichostatin A, used as a positive control induced toxicity (68% viable).
# [10] = tested on: primary peripheral blood mononuclear cells (PBMCs) from healthy donors; assay: T cell activation in primary PBMCs (CD69 flow cytometry); conditions: 10 μM Alprazolam in combination with 0.5 μM SAHA, 24 h
# Protocol: To investigate whether alprazolam is specifically activating HIV-1 or having general effect on T cell activation (CD4 and CD8), primary PBMC from two healthy donors were treated with 10 μM, 50 μM Alprazolam or Ro5-3335 respectively alone or in combination with 0.5 μM SAHA. Twenty-four hours after treatment, cells were stained using Zombie yellow live and dead staining and then stained for CD3, CD8, CD4, CD69, and then fixed for analysis by flow cytometry. AntiCD3/CD28 and PHA were included as a positive control. Samples were analyzed on a CYTEK® DxP12 flow cytometer followed by analysis using FLOWJO® v10 software (Treestar)
# In order to investigate whether alprazolam was specifically activating HIV-1 or having a general effect on T cell activation (CD4 and CD8), primary peripheral blood mononuclear cells (PBMCs) from two healthy donors were treated with 10 μM Alprazolam or 50 μM Ro5-3335, both alone or in combination with 0.5 μM SAHA. Twenty-four hours after treatment, cells were stained using Zombie yellow live and dead staining, then stained for CD3, CD8, CD4, CD69, and then fixed for analysis by flow cytometry. AntiCD3/CD28 and PHA were included as a positive control (FIG. 2B).
compound,measurement,setting,value
O=C1CN=C(c2ccc[nH]2)c2cc(Cl)ccc2N1 [Ro5-3335],activation of latent virus (in words),"[1]; Ro5-3335 by itself, without SAHA",did not activate the virus by itself
same,acetylated H3K9 in the nuclei (in words),[2]; Ro5-3335 and SAHA,further increased the acetylation; also recorded: increase in acetylated histone 3 at lysine 9
same,H3K9ac at the HIV-1 LTR versus SAHA alone (in words),[3],potentiation was not seen
same,recruitment of CBP/P300 to the HIV-1 LTR,[4],3 fold
same,luciferase expression driven by Tat (in words),[5],significantly suppressed luciferase expression; also recorded: significant suppression of Tat
same,IL-17 promoter activity (in words),"[6]; all three conditions: alone, with SAHA, with RUNX1 overexpression",inhibited IL-17 promoter in a dose dependent fashion
same,expression of seven selected RUNX responsive genes (in words),[7],significantly altered the expression of five of the selected RUNX responsive genes
same,increase in HIV-1 transcripts (Gag mRNA),"[8]; 50 μM Ro5-3335 alone, two patients, versus DMSO control",1.5 fold and 1.2 fold
"O=C(CCCCCCC(=O)Nc1ccccc1)NO [SAHA, N-hydroxy-N′-phenyloctanediamide]",GFP+ cells,"[1]; 0.5 uM SAHA alone, FIG. 1B",5.9%
same,GFP+ cells,"[1]; SAHA alone, FIG. 1A screen, DMSO 2.8%",6.2%
same,viability,[9]; 0.5 μM SAHA,94.6%
same,acetylated H3K9 in the nuclei (in words),[2]; SAHA alone,increase in acetylated H3K9; also recorded: increase in acetylated histone 3 at lysine 9
same,occupancy of H3K9ac at the promoter (in words),"[3]; 5 μM SAHA alone, compared to DMSO control",increased the occupancy of H3K9ac
same,recruitment of CBP/P300 (in words),[4]; SAHA alone,no increase in recruitment
same,IL-17 driven luciferase expression (in words),[6]; SAHA treatment compared to control,increased IL-17 driven luciferase expression
CN1C(=O)CN=C(c2ccccc2F)c2cc([N+](=O)[O-])ccc21 [Flunitrazepam],percentage of GFP+ live cells,[1],9.1%
O=C(O)C1N=C(c2ccccc2)c2cc(Cl)ccc2NC1=O (stereo not drawn) [Clorazepate],maximal effect in dose dependent reactivation (in words),"[1]; alone, FIG. 1B","smaller maximal effect, but at lower doses"
same,luciferase expression driven by Tat (in words),[5],additional activation beyond what was seen with Tat alone
O=C1CN=C(c2ccccc2Cl)c2cc([N+](=O)[O-])ccc2N1 [Clonazepam],maximal effect in dose dependent reactivation (in words),"[1]; alone, FIG. 1B","smaller maximal effect, but at lower doses"
same,H3K9ac at the HIV-1 LTR versus SAHA alone (in words),[3],potentiation was not seen
CN1C(=O)CN=C(c2ccccc2)c2cc(Cl)ccc21 [Diazepam],percentage of GFP+ live cells,[1],12.4%
same,activation compared with the other tested benzodiazepines (in words),[1],maximum activation
Cc1nnc2n1-c1ccc(Cl)cc1C(c1ccccc1)=NC2 [Alprazolam],percentage of GFP+ live cells,[1],20.3%
same,"GFP+ cells, dose dependent reactivation","[1]; alone, at 10 μM, FIG. 1B, DMSO control 2.8%",25.5%
same,activation compared with the other tested benzodiazepines (in words),[1],maximum activation
same,T cell activation (in words),[10],did not induce any significant T cell activation
same,T cell activation (in words),[10]; listed as alprazolam,did not induce significant T-cell activation
same,H3K9ac at the HIV-1 LTR versus SAHA alone (in words),[3],further increased acetylation over SAHA alone
same,recruitment of CBP/P300 to the HIV-1 LTR,[4],7 fold
same,luciferase expression driven by Tat (in words),[5],additional activation beyond what was seen with Tat alone
same,IL-17 promoter luciferase activity (in words),[6]; RUNX1 over expression,increased luciferase activity
same,IL-17 promoter activity (in words),"[6]; absence of SAHA or RUNX1 over expression, lowest dose 0.1 μM",statistically significant suppression
same,IL-17 promoter luciferase activity (in words),[6]; in the presence of SAHA,no effect on luciferase activity
same,increase in HIV-1 Gag RNA,"[8]; Patient 1, versus DMSO control",4.6 fold
same,increase in HIV-1 Gag RNA,"[8]; Patient 2, versus DMSO control",3.3 fold
"CC(/C=C/C(=O)NO)=C\[C@@H](C)C(=O)c1ccc(N(C)C)cc1 [Trichostatin A, [R-(E,E)]-7-[4-(Dimethylamino)phenyl]-N-hydroxy-4,6-dimethyl-7-oxo-2,4-heptadienamide]",viable cells,[9]; positive control,68%
